Legend:
[1] = test system: Normal human dermal fibroblasts (NB1RGB); test: Type I collagen production promotive action test; type: cell-based; conditions: 3 days, A/B×100 vs no sample
Description: Normal human dermal fibroblasts (NB1RGB) were cultured using Dulbecco's modified Eagle's medium (DMEM) containing 10% FBS, and then the cells were collected by a trypsin treatment. The collected cells were diluted with DMEM containing 0.25% FBS to a cell density of 1.6×10^5 cells/mL, then seeded with 100 μL per well in a 96-well microplate, and cultured overnight.
After the culturing was completed, 100 μL of the test sample (Sample 1, see Table 6 below for final concentration) dissolved in DMEM containing 0.25% FBS was added to each well, and culturing was performed for 3 days. As a control, culturing was performed in the same manner using DMEM containing 0.25% FBS to which no sample was added. After culturing, the amount of type I collagen in the medium of each well was measured by ELISA method. From the measurement results, the type I collagen production promotion rate (%) was calculated using the following equation.
Type I collagen production promotion rate (%)=A/B×100
Terms in the equation represent the following respective ones. • A: Type I collagen amount with test sample addition • B: Type I collagen amount without sample addition

HAS3 mRNA = test: Hyaluronic acid synthase 3 (HAS3) mRNA expression promotive action test; type: cell-based, human; conditions: 25 μmol/L; NHEK, 24 hours; A/B×100, corrected with GAPDH
Description: Normal human neonatal epidermal keratinocytes (NHEK) were precultured using normal human epidermal keratinocyte growth medium (KGM), and the cells were collected by a trypsin treatment. The collected cells were diluted with KGM to a cell density of 15×10^4 cells/mL, then seeded with 2 mL portions in a 6-well plate (30×10^4 cells/well), and cultured overnight under conditions of 37° C. and 5% CO2. After culturing, the medium was replaced with normal human epidermal keratinocyte basal medium (KBM, the above KGM without addition of growth additives (hEGF, BPE, insulin, antibacterial agents, hydrocortisone)), and culturing was further performed for 24 hours.
After culturing for 24 hours, the medium was removed, and 2 mL of the test sample (Sample 1, see Table 10 below for final concentration) dissolved in KBM was added to each well, and culturing was performed under conditions of 37° C. and 5% CO2 for 24 hours. As a control, culturing was performed in the same manner using KBM to which no sample was added. After culturing, the medium was removed, total RNA was extracted using ISOGEN II (available from NIPPON GENE CO., LTD.), each RNA amount was measured using a spectrophotometer, and the total RNA was prepared so as to be 150 ng/μL.
For HAS3 and GAPDH as an internal standard, the expression levels of mRNA were measured using the above total RNA as a template. […]

[2] = test system: Normal human neonatal epidermal keratinocytes (NHEK); test: Epidermal keratinocyte proliferation promotive action test (MTT); type: cell-based; conditions: 3 days, A/B×100 vs no sample
Description: Normal human neonatal epidermal keratinocytes (NHEK) were cultured using normal human epidermal keratinocyte growth medium (KGM), and then the cells were collected by a trypsin treatment. The collected cells were diluted with KGM to a cell density of 3.0×10^4 cells/mL, then seeded with 100 μL per well on a collagen-coated 96-well plate, and cultured overnight. After the culturing was completed, 100 μL of the test sample (Sample 1, see Table 12 below for the final concentration) dissolved in KGM was added to each well, and culturing was performed for 3 days. As a control, culturing was performed in the same manner using KGM to which no sample was added.
The epidermal keratinocyte proliferation promotive action was measured using the MTT assay method. After culturing for 3 days, the medium was removed, and 100 μL of MTT dissolved at a final concentration of 0.4 mg/mL in PBS(−) buffer solution was added to each well. […] After extraction, the absorbance at a wavelength of 570 nm was measured. At the same time, the absorbance at a wavelength of 650 nm was measured as turbidity, and the difference between the two was determined as the production amount of blue formazan. From the obtained results, the epidermal keratinocyte proliferation promotion rate (%) was calculated using the following equation. […]

O=C(O)CCc1ccc(O)c(O)c1 [Sample 1, 3,4-Dihydroxyhydrocinnamic acid]
Type I collagen production promotion rate ([1]; 15.6 μmol/L): 107.4% | Type I collagen production promotion rate ([1]; 62.5 μmol/L): 112.8% | HAS3 mRNA expression promotion rate (HAS3 mRNA): 173. 5% | Epidermal keratinocyte proliferation promotion rate ([2]; 25 μmol/L): 138.3% | Epidermal keratinocyte proliferation promotion rate ([2]; 100 μmol/L): 152.1%

From US20240252456A1, “ORAL COMPOSITION, SKIN COSMETIC AND HAIR COSMETIC” (MARUZEN PHARMACEUTICALS CO., LTD., priority 2021, published 2024)
